Assay results published in patent US20240368619A1, “METHODS AND COMPOSITIONS FOR PPO HERBICIDE TOLERANCE” (SESVanderHave NV, priority 2021, published 2024).
Read-outs that look alike come from different tables or passages of the source.

What was measured:
Format in all cases: in vivo, Beta vulgaris
[1] = system: regenerated wild-type sugar beet plants; test: In vitro growth of regenerated wild-type plants on media containing SAF; settings: media containing SAF 2.5 μM; wild-type genotype
Procedure: (§1) In other experiments, screening for resistance to PPO herbicides was done on 25 regenerated sugar beet plants obtained after transfection of guard cell protoplasts by growing these plants (8 clones or copies per plant) on media containing SAF at a concentration of 2.5 μM. Visual observation of growth was done after 20 to 28 days. Plants were scored visually according to their growth, and marked “OK” for plants showing growth, “Bit growth” for plants showing limited growth, “No” for plants showing no growth, or “Dead” for plants that were dead after SAF exposure. The concentration of SAF used in this screen was identified as impacting severely on regenerated wild-type plants obtained after protoplast isolation and regeneration from the sugar beet genotype, from which guard cell protoplasts are isolated for transfection.

[2] = system: sugar beet plants edited at position 126 showing another type of edit than the expected mutation; settings: SAF 1X, 200 g a.i./ha, 17 days after spraying
Procedure: (§2) In other experiments, plants carrying the mutation R126L described below in Table 6 were acclimatized in soil for 3-5 weeks and screened for PPO resistance with a spray test of the PPO herbicides Saflufenacil (Brand name TREEVIX at a recommended dose of 200 g a.i./ha), Pyraflufen-ethyl (Brand name EVOLUTION at a recommended dose of 0.8l/ha, or a.i. 26.5 g/l) Saflufenacil (pure compound Sigma at a recommended dose of 200 g a.i./ha). The spray was performed at a concentration of 0.5× and 1× of the recommended dose for Saflufenacil), and 0.2× for Pyraflufen-ethyl). The pure chemical compound SAF used on the regenerated plants in vitro was also used in this screen at 1× recommended dose of 200 g ai/Ha. Water treatment was included as a control. […] In both experiments each sugar beet plant was multiplied in vitro as to include a total of minimum 4 clones or replicates of each edited sugar beet plant per herbicide treatment. The phytotoxicity effect of PPO inhibiting herbicides was measured in mutated sugar beet plants (on a set of minimum 4 clones per edited sugar beet plant) based on a scale from 0% to 100%, or 1 to 5, (i.e. 0% or 1 being no damage/no phytotoxicity observed and 100% or 5, being all plants were completely damaged or killed,) compared to wild-type plants. […]
(§3) No score is provided when the plant has not been tested, noted as NT in the table (not tested). Water treatment was included when enough plants were available. At least 4 copies per edited plant were sprayed. Scores were given on group of 4 copies per edited plant. HDR=edited plant showing the expected mutation R to L at position 126, INDEL=edited plant showing another type of edit than the expected mutation.

[3] = system: sugar beet plants carrying the R126L mutation; settings: SAF 1X, 200 g a.i./ha, 17 days after spraying
Procedure: as §2, §3

[4] = system: wild-type sugar beet plants; test: Spray test of PPO herbicides on control (Ctrl) sugar beet plants; settings: SAF 1X, 200 g a.i./ha, 17 days after spraying
Procedure: as §2
No score is provided when the plant has not been tested, noted as NT in the table (not tested). […]

[5] = system: edited sugar beet plants; test: In vitro growth of regenerated edited plants on media containing SAF; settings: media containing SAF 2.5 μM
Procedure: as §1

## CC(C)N(C)S(=O)(=O)NC(=O)c1cc(-n2c(=O)cc(C(F)(F)F)n(C)c2=O)c(F)cc1Cl [SAF, saflufenacil]
[1]
  effect on growth of regenerated wild-type plants (visual): severe growth retardation and in some cases lethal effect
[2]; event HTC001 (INDEL)
  phytotoxicity score 1 to 5 (healthy to damaged): 5
[2]; event HTC002 (INDEL)
  phytotoxicity score 1 to 5 (healthy to damaged): 4
[2]; event HTC009 (INDEL)
  phytotoxicity score 1 to 5 (healthy to damaged): 4
[2]; event HTC012 (INDEL)
  phytotoxicity score 1 to 5 (healthy to damaged): 4
[2]; event HTC014 (INDEL)
  phytotoxicity score 1 to 5 (healthy to damaged): 4
[2]; event HTC016 (INDEL)
  phytotoxicity score 1 to 5 (healthy to damaged): 4
[2]; event HTC017 (INDEL)
  phytotoxicity score 1 to 5 (healthy to damaged): 4
[2]; event HTC021 (INDEL)
  phytotoxicity score 1 to 5 (healthy to damaged): 5
[2]; event HTC023 (INDEL)
  phytotoxicity score 1 to 5 (healthy to damaged): 2
[2]; event HTC028 (INDEL)
  phytotoxicity score 1 to 5 (healthy to damaged): 4
[3]; event HTC003 (HDR)
  phytotoxicity score 1 to 5 (healthy to damaged): 4
[3]; event HTC007 (HDR)
  phytotoxicity score 1 to 5 (healthy to damaged): 3
[3]; event HTC013 (HDR)
  phytotoxicity score 1 to 5 (healthy to damaged): 2
[3]; event HTC015 (HDR)
  phytotoxicity score 1 to 5 (healthy to damaged): 3
[3]; event HTC018 (HDR)
  phytotoxicity score 1 to 5 (healthy to damaged): 2
[3]; event HTC024 (HDR)
  phytotoxicity score 1 to 5 (healthy to damaged): 4
[3]; event HTC046 (HDR)
  phytotoxicity score 1 to 5 (healthy to damaged): 2
[3]; event HTC056 (HDR)
  phytotoxicity score 1 to 5 (healthy to damaged): 4
[4]; B8M52 (Ctrl)
  phytotoxicity score 1 to 5 (healthy to damaged): 5
[4]; HTC005 (Ctrl)
  phytotoxicity score 1 to 5 (healthy to damaged): 5
[5]; 20 to 28 days, edited plants scored as OK and Bit growth
  growth of edited plants (visual): good level of SAF tolerance
[5]; 20 days, HTC013 and HTC015 (R126L), 8 copies each, versus wild-type
  growth and plant development of edited versus wild-type plants (visual): Clear differences in growth, and plant development
